“And” between values parts separate entries of the source, which are not always exact repeats. Identical values can stand only once.
What was measured:
[1] = tested on: PDE4B; design: method as in PMID 27353547; conditions: in vitro, bioluminescent detection system; ref [8]; cited from earlier work
[2] = target: T1, human 5-HT1AR (Homo sapiens, UniProt P08908); assay: β-Arrestin recruitment (Tango LiveBLAzer, HTR1A-bla U2OS cells)
T1 sequence (P08908 1-422): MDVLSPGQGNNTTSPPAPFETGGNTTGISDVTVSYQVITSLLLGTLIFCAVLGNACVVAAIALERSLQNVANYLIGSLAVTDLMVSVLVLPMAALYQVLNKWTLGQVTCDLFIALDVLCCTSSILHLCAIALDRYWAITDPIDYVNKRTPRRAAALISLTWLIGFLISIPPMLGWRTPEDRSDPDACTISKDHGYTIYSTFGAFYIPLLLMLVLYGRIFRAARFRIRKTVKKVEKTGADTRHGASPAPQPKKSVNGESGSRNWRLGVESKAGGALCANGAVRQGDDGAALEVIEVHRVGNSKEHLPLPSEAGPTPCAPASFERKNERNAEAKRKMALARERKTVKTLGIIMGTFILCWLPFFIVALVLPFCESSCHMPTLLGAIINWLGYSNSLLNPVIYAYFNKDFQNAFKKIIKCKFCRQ
Protocol: Cells were cultured according to manufacturer’s instruction. […] This parental cell line stably expresses a beta-arrestin/TEV protease fusion protein and the beta-lactamase reporter gene under the control of a UAS response element. The Tango™ HTR1A-bla U2OS cells have been functionally validated for a response to 5-CT. This cell line tested negative for mycoplasma.
The HTR1A-bla U2OS receptor cells containing the human 5-HT1AR linked to a TEV protease site and a Gal4-VP16 transcription factor were tested for recruitment of β-arrestin. […] The recruitment of β-arrestin were tested using the Tango LiveBLAzer assay kit according to the manufacturer’s instruction (Life Technologies). The assay plate was measured in FLUOstar Optima, a multifunction plate reader (BMG Lab Tech).

[3] = Liver, kidney and heart weight after repeated administration; type: in vivo, Swiss albino mice; conditions: mice, AZ-853 0.625 mg/kg, AZ-861 1.25 mg/kg
Protocol: (§1) The Swiss albino mice were used in the experiment. AZ-853 and AZ-861 were injected once daily for 16 consecutive days. On the 1st and 15th day the administration of the compounds, 18-h spontaneous animal activity was registered (see below). FST, as described earlier, was performed on the 14th day just before the next treatment. To ensure that the effects observed in FST are not the result of increased motility of animals, on the 13th day, just before the next administration, the locomotor activity was measured as described earlier, from 2 to 6 min after test start, i.e. in the period identical to the duration of FST. Blood and organ collection was performed on the 17th day at 24 h after the last dose and fasting.
(§2) The body weight was measured daily immediately prior to administration of the drugs. On the 17th day, the blood was collected from the Swiss albino mice sacrificed by decapitation 20 min after i.p. administration of heparin (2500 units/mouse) and then centrifuged at 600 × g (15 min, 4°C) to separate plasma. The liver, heart, and kidney were also collected and weighed.

[4] = Body weight measurement in the 17-day experiment; type: in vivo, Swiss albino mice; conditions: for body weight Mean / body weight: mouse, 0.625 mg/kg
Protocol: as §1, §2

[5] = design: method as in PMID 27353547; conditions: ref [8]; cited from earlier work
[6] = target: T2, human serotonin 5-HT1A receptor (Homo sapiens, UniProt P08908); assay: ERK1/2 phosphorylation (SureFire Alpha LISA, CHO-K1 5HT1AR cells)
T2 sequence (P08908 1-422): T1 sequence (P08908 1-422)
Protocol: CHO-K1 cell line transfected with 5-HT1A receptor, were commercially obtained from Perkin Elmer (Cat. No. ES-310-C, Lot Number M2W-C1). Cells were cultured according to manufacturer’s instruction. […] Geneticin-resistant clones were obtained by limit dilution and compared for receptor expression levels using a radioligand binding assay. The clone with the highest receptor expression level was selected for characterization in binding and functional assays. […] Corresponding Protein Sequence: Identical to GenBank NP_000515.2. Receptor expression level (BMAX): Estimated to be 3.7 ± 2.3 pmol/mg protein, using [3H] […] This cell line tested negative for mycoplasma.

[7] = target: serotonergic 5-HT7 receptor (5-HT7R); design: method as in PMID 27353547; conditions: ref [8]; cited from earlier work
[8] = tested on: mice; assay: Forced swim test (FST) in mice; type: in vivo, Swiss albino mice; conditions: for reduction of immobility time in FST: acute, 60 min before test
Excerpt: The investigated compounds AZ-853 (8-(4-(4-(2-fluorophenyl)piperazin-1-yl)butyl)-1,3-dimethyl-1H-imidazo[2,1-f]purine-2,4(3H,8H)-dione and AZ-861 (1,3-dimethyl-8-(4-(4-(3-(trifluoromethyl)phenyl)piperazin-1-yl)butyl)-1H-imidazo[2,1-f]purine-2,4(3H,8H)-dione) were synthesised in the Department of Medicinal Chemistry, Faculty of Pharmacy, Jagiellonian University, and their synthesis was described earlier. AZ-853 and AZ-861 were suspended in 1% aqueous solution of Tween 80, and WAY-100635 (Sigma, Germany) was dissolved in 0.9% saline. In acute experiments, the selected compounds AZ-853 (0.156–2.5 mg/kg) and AZ-861 (0.625–2.5 mg/kg) were injected i.p. once 60 min before tests, whereas WAY-100635 (0.3 mg/kg) was administered subcutaneously (s.c.) 45 min before the test. […] In chronic experiments, AZ-853 and AZ-861 were administered i.p. once a day (between 9:00 AM and 10:00 AM) for 16 consecutive days at the minimum active doses selected from FST experiment, i.e. 0.625 and 1.25 mg/kg, respectively. All compounds were administered to mice at a volume of 10 ml/kg and to rats at a volume of 2 ml/kg. The control groups received 1% aqueous solution of Tween 80.
The experiment was carried out according to the method of Porsolt et al.. Swiss albino mice were individually placed in a glass cylinder (25 cm high; 10 cm in diameter) containing 10 cm of water maintained at 23–25°C, and were left there for 6 min. The total duration of immobility was recorded during the last 4 min of a 6-min. A mouse was regarded as immobile when it remained floating on the water, making only small movements to keep its head above it.
as §1

SMILES: Cn1c(=O)c2c(nc3n(CCCCN4CCN(c5ccccc5F)CC4)ccn23)n(C)c1=O [AZ-853, 8-(4-(4-(2-fluorophenyl)piperazin-1-yl)butyl)-1,3-dimethyl-1H-imidazo[2,1-f]purine-2,4(3H,8H)-dione]
- PDE4B inhibitory activity [1]: did not induce PDE4B and PDE10A inhibitory activity
- EC50 [2]: 4.17 nM
- Emax ([2]; U2OS, read-out: Emax (%) ± SEM, agonist mode): 93 ± 1.7%
- increased potency as compared to 5-HT ([2]; β-arrestin recruitment): 95 fold
- effect on liver, kidney and heart weight (% of total body weight) [3]: neither AZ-853 (0.625 mg/kg) nor AZ-861 (1.25 mg/kg) influenced
- effect on body weight ([4]; mice, repeated i.p. once daily, AZ-853 0.625 mg/kg (from 10th day), AZ-861 1.25 mg/kg (2nd, 3rd, 4th day)): slight but significant increase in body weight
- body weight Mean ([4]; day 1, group mean): 23.45 g
- body weight ([4]; day 1, individual mouse): 24.7 g (2×) and 22.9 g and 21.9 g and 25.0 g and 23.8 g and 23.0 g and 21.7 g (2×) and 25.1 g
- body weight Mean ([4]; day 2, group mean): 23.55 g
- body weight ([4]; day 2, individual mouse): 24.9 g and 23.5 g and 24.2 g and 22.6 g and 24.5 g and 23.3 g and 22.7 g and 21.2 g and 22.0 g and 26.6 g
- body weight Mean ([4]; day 3, group mean): 23.90 g
- body weight ([4]; day 3, individual mouse): 25.0 g (2×) and 24.0 g (3×) and 23.0 g (2×) and 22.0 g (2×) and 27.0 g
- body weight Mean ([4]; day 4, group mean): 23.70 g
- body weight ([4]; day 4, individual mouse): 24.0 g (4×) and 25.0 g and 22.0 g (3×) and 23.0 g and 27.0 g
- body weight Mean ([4]; day 5, group mean): 23.80 g
- body weight ([4]; day 5, individual mouse): 23.3 g and 23.8 g and 24.9 g and 22.7 g and 24.6 g and 23.7 g and 23.6 g and 22.2 g and 22.8 g and 26.4 g
- body weight Mean ([4]; day 6, group mean): 23.85 g
- body weight ([4]; day 6, individual mouse): 24.2 g and 23.2 g and 24.4 g and 22.9 g and 24.7 g and 23.9 g and 23.5 g and 21.9 g and 23.4 g and 26.4 g
- body weight Mean ([4]; day 7, group mean): 24.10 g
- body weight ([4]; day 7, individual mouse): 24.0 g (4×) and 25.0 g (2×) and 23.0 g (3×) and 26.0 g
- body weight Mean ([4]; day 8, group mean): 24.50 g
- body weight ([4]; day 8, individual mouse): 25.0 g (2×) and 26.0 g (3×) and 23.0 g (3×) and 24.0 g (2×)
- body weight Mean ([4]; day 9, group mean): 25.00 g
- body weight ([4]; day 9, individual mouse): 25.0 g (2×) and 26.0 g (2×) and 27.0 g (2×) and 23.0 g (2×) and 24.0 g (2×)
- body weight Mean ([4]; day 10, group mean): 25.14 g
- body weight ([4]; day 10, individual mouse): 25.4 g and 24.9 g and 26.7 g and 23.8 g and 25.2 g and 24.3 g and 24.0 g and 23.7 g and 25.7 g and 27.7 g
- body weight Mean ([4]; day 11, group mean): 24.68 g
- body weight Mean ([4]; day 12, group mean): 25.52 g
- body weight Mean ([4]; day 13, group mean): 25.54 g
- body weight Mean ([4]; day 14, group mean): 25.91 g
- body weight Mean ([4]; day 15, group mean): 26.09 g
- estimated log p [5]: 5.34
- EC50 [6]: 6.61 nM
- Emax ([6]; CHO-K1, read-out: Emax (%) ± SEM, agonist mode): 60 ± 2%
- decreased efficacy as compared to 5-HT ([6]; p-ERK1/2): 1.6 fold
- increased potency as compared to 5-HT ([6]; p-ERK1/2): 1.5 fold
- Ki [7]: 508 nM
- reduction of immobility time in FST ([8]; 0.625 mg/kg i.p.): approximately 50%
- reduction of immobility time in FST ([8]; 1.25 mg/kg i.p.): ~58%
- reduction of immobility time in FST ([8]; 2.5 mg/kg i.p.): ~45%
- effect of WAY-100635 on the antidepressant-like action of the compound in FST ([8]; compound 1.25 mg/kg i.p. + WAY-100635 0.3 mg/kg s.c.): completely abolished
- effect on immobility time in FST after repeated administration ([8]; i.p. once daily for 13 consecutive days, AZ-853 0.625 mg/kg, AZ-861 1.25 mg/kg): decreased the immobility time
